In brackets after ≈: the same amount, converted by molar mass. Blank lines part the entries; values can stand above or below the compound they belong to.
Key:
[1] = molecular target: T1, Serine/threonine-protein kinase Nek1 (Homo sapiens) (UniProt Q96PY6); assay: Inhibition of human NEK1 using myelin basic protein as substrate assessed as residual activity at 1 uM in presence of [gamma-33P]-ATP by radiometric hotspot kinase assay relative to control
T1 sequence (whole entry): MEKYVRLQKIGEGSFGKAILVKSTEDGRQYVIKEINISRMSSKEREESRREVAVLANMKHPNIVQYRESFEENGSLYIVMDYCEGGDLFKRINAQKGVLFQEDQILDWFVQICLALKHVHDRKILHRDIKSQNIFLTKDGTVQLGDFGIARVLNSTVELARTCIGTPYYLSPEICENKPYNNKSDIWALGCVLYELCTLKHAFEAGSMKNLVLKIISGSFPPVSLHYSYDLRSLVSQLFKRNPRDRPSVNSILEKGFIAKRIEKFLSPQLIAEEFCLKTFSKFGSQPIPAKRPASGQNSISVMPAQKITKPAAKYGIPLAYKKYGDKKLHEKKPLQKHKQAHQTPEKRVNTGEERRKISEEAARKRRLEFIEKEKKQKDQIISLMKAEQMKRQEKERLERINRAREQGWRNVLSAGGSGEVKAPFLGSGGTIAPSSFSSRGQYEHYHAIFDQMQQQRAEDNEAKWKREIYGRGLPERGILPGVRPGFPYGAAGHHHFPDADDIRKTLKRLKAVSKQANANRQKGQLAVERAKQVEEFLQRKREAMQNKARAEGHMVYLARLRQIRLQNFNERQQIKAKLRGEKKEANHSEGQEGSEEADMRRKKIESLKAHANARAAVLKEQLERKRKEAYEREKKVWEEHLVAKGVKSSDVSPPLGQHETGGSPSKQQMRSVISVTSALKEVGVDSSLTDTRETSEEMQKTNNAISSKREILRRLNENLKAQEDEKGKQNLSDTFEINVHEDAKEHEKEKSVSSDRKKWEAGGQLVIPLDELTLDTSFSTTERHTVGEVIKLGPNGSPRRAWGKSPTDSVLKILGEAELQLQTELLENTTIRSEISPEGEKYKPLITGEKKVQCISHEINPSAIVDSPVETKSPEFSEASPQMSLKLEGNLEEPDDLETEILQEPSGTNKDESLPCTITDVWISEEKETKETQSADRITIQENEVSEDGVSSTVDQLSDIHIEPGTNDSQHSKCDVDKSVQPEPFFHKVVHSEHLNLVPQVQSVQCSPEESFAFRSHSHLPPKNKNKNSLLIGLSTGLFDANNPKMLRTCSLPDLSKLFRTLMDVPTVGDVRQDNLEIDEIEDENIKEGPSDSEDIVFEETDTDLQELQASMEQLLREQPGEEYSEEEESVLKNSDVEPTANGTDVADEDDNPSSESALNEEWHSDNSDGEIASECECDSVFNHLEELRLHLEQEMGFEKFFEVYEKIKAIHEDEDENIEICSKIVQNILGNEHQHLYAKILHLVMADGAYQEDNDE

[2] = molecular target: T2, Serine/threonine-protein kinase Nek1 (Homo sapiens, UniProt Q96PY6); assay: Inhibition of human NEK1 using myelin basic protein as substrate assessed as residual activity in presence of [gamma-33P]-ATP by radiometric hotspot kinase assay relative to control
T2 sequence (Q96PY6 whole entry): T1 sequence (whole entry)

[3] = molecular target: Cyclin-dependent kinase 2/cyclin E1 (Homo sapiens) (UniProt P24864+P24941); assay: (§1) Inhibition of human recombinant full length C-terminal His6 tagged CDK2/ N-terminal GST-tagged Cyclin E expressed in baculovirus infected Sf21 insect cells using histone H1 as substrate assessed as residual activity at 1 uM pretreated for 20 mins followed by [33P]-ATP addition measured after 120 mins by radiometric hotspot kinase assay relative to control; conditions: time 140.0 min
[4] = molecular target: T3, Serine/threonine-protein kinase Chk1 (Homo sapiens) (UniProt O14757); assay: as §1, with “N-terminal His” for “C-terminal His6”, “CHK1” for “CDK2/ N-terminal GST-tagged Cyclin E”, “CHKtide” for “histone H1”; conditions: time 140.0 min
T3 sequence (whole entry): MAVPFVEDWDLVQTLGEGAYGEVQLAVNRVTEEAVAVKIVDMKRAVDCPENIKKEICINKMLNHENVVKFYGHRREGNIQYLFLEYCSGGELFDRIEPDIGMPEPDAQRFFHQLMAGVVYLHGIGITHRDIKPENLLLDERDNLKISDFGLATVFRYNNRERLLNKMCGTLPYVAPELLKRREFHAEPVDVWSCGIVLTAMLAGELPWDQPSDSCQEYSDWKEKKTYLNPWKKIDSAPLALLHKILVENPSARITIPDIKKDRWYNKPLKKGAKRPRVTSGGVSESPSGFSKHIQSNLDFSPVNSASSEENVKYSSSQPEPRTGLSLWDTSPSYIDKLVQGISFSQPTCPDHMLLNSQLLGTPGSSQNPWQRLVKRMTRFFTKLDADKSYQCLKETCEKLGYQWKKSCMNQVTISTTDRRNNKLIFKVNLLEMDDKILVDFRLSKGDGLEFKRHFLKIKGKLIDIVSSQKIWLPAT

[5] = molecular target: Vascular endothelial growth factor receptor 2 (Homo sapiens) (UniProt P35968); assay: Inhibition of human recombinant C-terminal His6 tagged VEGFR2 (789 to 1356 residues) expressed in baculovirus infected insect cells assessed as residual activity at 1 uM pretreated for 20 mins followed by [33P]-ATP addition measured after 120 mins by radiometric hotspot kinase assay relative to control; conditions: time 140.0 min
[6] = molecular target: T4, Serine/threonine-protein kinase Nek5 (Homo sapiens) (UniProt Q6P3R8); assay: Inhibition of human recombinant NEK5 assessed as residual activity at 1 uM pretreated for 20 mins followed by [33P]-ATP addition measured after 120 mins by radiometric hotspot kinase assay relative to control; conditions: time 140.0 min
T4 sequence (whole entry): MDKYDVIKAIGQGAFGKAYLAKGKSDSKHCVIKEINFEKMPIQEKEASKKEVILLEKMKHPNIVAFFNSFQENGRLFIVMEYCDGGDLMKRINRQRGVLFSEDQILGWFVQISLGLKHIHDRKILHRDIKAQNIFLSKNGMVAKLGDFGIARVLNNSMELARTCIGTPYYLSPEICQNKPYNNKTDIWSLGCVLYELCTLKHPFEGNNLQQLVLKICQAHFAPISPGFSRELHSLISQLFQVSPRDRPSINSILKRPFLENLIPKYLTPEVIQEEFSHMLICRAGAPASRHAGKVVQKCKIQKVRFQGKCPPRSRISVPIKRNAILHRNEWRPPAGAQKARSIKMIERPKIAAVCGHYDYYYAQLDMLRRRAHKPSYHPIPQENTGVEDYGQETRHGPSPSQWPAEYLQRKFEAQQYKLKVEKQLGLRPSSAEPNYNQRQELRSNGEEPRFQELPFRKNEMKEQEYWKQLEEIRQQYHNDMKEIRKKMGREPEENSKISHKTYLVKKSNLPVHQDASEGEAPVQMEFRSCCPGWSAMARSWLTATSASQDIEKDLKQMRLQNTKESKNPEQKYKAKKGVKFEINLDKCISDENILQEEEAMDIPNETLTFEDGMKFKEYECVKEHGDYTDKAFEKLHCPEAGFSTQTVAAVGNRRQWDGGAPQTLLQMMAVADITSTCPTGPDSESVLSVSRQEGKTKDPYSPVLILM

[7] = molecular target: Wee1-like protein kinase (Homo sapiens) (UniProt P30291); assay: Inhibition of human recombinant full length WEE1 expressed in insect cells using MBP as substrate assessed as residual activity at 1 uM pretreated for 20 mins followed by [33P]-ATP addition measured after 120 mins by radiometric hotspot kinase assay relative to control; conditions: time 140.0 min
[8] = Solubility of the compound in E3 medium with 0.2% DMSO by DAD-HPLC based shake flask method; assay type: physicochemical
[9] = Solubility of the compound in DMEM with 1% DMSO by DAD-HPLC based shake flask method; assay type: physicochemical
[10] = Stability of the compound in DMEM measured after 48 hrs by DAD-HPLC method; assay type: physicochemical; conditions: read-out: Stability
Danio rerio = species: Danio rerio; assay: Toxicity in zebra fish embryos assessed as reduction in heart beat at 1 uM measured every 24 hrs for 120 hrs; assay type: organism-based; conditions: zebrafish, in vivo
[11] = molecular target: T1, Serine/threonine-protein kinase Nek1 (Homo sapiens); assay: Inhibition of human NEK1 using myelin basic protein as substrate assessed as residual activity at 10 uM in presence of [gamma-33P]-ATP by radiometric hotspot kinase assay relative to control
[12] = Permeability across apical to basolateral side in human Caco-2 cells at pH 6.5 at 1 uM; assay type: ADME, cell-based; conditions: Caco-2, pH 6.5, read-out: permeability
[13] = Permeability across apical to basolateral side in human Caco-2 cells at pH 6.5 assessed as compound recovery at 1 uM; assay type: ADME, cell-based; conditions: Caco-2, pH 6.5, read-out: Drug recovery
[14] = Permeability across basolateral to apical side in human Caco-2 cells at pH 7.4 at 1 uM; assay type: ADME, cell-based; conditions: Caco-2, pH 7.4, read-out: permeability
[15] = Permeability across basolateral to apical side in human Caco-2 cells at pH 7.4 assessed as compound recovery at 1 uM; assay type: ADME, cell-based; conditions: Caco-2, pH 7.4, read-out: Drug recovery

Wee1-like protein kinase (Homo sapiens), sequence (P30291 whole entry, looked up): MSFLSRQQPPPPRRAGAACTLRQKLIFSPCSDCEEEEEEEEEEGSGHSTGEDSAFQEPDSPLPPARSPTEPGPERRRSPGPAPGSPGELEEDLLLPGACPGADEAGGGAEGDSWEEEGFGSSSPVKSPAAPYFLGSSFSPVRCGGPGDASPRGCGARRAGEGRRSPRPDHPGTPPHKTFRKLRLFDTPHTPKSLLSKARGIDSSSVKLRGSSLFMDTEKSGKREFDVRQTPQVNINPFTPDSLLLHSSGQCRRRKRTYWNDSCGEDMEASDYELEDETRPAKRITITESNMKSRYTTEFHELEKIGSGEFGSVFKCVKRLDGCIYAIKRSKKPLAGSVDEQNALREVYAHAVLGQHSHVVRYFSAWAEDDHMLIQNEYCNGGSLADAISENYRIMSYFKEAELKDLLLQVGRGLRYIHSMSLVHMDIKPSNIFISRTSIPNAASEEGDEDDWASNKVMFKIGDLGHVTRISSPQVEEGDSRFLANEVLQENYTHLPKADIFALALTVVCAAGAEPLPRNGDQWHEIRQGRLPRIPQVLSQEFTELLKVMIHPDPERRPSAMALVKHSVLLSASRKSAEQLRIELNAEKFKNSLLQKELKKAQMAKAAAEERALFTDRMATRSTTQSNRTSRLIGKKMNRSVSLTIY
Vascular endothelial growth factor receptor 2 (Homo sapiens), sequence (P35968 whole entry, the tested form may be a part): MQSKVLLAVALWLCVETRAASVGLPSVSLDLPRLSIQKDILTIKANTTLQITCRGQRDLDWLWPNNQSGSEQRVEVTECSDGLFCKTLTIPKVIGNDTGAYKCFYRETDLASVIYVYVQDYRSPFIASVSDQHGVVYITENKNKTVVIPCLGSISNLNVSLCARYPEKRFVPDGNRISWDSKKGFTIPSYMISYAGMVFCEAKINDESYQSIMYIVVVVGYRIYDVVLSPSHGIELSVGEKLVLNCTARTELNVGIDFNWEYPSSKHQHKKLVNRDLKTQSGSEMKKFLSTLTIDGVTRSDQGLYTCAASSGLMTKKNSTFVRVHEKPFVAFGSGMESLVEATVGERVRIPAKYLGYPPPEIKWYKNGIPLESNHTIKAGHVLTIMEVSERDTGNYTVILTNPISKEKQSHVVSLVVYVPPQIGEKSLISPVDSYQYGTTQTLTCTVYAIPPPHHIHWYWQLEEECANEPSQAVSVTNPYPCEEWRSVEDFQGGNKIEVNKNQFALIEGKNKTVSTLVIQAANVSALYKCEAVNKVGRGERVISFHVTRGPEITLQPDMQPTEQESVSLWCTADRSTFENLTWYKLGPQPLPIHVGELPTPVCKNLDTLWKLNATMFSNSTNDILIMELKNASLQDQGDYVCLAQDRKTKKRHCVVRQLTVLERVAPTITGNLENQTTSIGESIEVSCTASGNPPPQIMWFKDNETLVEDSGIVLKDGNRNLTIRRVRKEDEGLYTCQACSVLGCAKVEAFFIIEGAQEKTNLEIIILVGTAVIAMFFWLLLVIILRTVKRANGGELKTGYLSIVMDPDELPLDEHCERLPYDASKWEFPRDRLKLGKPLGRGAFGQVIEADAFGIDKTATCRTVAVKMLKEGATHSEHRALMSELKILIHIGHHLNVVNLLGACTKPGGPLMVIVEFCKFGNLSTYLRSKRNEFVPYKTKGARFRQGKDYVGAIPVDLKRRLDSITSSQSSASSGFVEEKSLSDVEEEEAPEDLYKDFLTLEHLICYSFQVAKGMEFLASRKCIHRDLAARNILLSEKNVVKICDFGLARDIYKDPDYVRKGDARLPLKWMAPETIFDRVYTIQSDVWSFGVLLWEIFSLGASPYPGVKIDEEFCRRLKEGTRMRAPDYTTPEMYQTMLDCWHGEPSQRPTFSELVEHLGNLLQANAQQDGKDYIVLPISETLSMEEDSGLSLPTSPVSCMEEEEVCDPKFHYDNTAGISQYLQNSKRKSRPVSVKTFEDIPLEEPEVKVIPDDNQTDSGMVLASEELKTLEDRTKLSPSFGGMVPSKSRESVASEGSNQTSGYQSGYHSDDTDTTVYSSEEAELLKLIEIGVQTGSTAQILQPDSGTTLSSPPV

SMILES: Cc1cc(Nc2ccnc(NCc3ccccc3)n2)n[nH]1
- Activity [1]: 95.4%

SMILES: Cc1cc(Nc2ccnc(N(C)Cc3ccccc3)n2)n[nH]1
- Activity [1]: 91.8%

SMILES: c1ccc(Nc2nccc(Nc3cc(-c4ccccc4)[nH]n3)n2)cc1
- Activity [1]: 65.9%

SMILES: N#Cc1cccc(-c2cnc3[nH]ccc3c2)c1
- Activity [11]: 64.7%

SMILES: Cc1cc(Nc2ccnc(Nc3ccccc3C)n2)n[nH]1
- Activity [1]: 87.5%

SMILES: c1ccc(Nc2nccc(Nc3cc(C4CC4)[nH]n3)n2)cc1
- IC50 [2]: 850 nM

SMILES: CCCCNc1nccc(Nc2cc(C)[nH]n2)n1
- Activity [1]: 86.9%

SMILES: Cc1cc(Nc2ccnc(NCc3ccccn3)n2)n[nH]1
- Activity [1]: 90.8%

SMILES: Cc1cc(Nc2ccnc(NCc3ccc4c(c3)OCO4)n2)n[nH]1
- Activity [1]: 97.2%

SMILES: N#Cc1cccc(-c2cnc3[nH]cc(Cl)c3c2)c1
- Activity [1]: > 100%

Continued, in another order:

- Activity [1]: 46.4%
SMILES: COC(=O)c1cccc(-c2cnc3[nH]cc(-c4cccc(C)c4)c3c2)c1

- Activity [1]: 12.4%
- IC50 [2]: 166 nM
- Activity [3]: 19.3%
- Activity [4]: > 100%
- Activity [5]: 94.1%
- Activity [6]: 90%
- Activity [7]: > 100%
- solubility [8]: 1 µM (≈ 0.358 µg/mL)
- solubility [9]: 2 µM (≈ 0.717 µg/mL)
- remaining at 48 h [10]: 97%
SMILES: COC(=O)c1cccc(-c2cnc3[nH]cc(-c4cccc(OC)c4)c3c2)c1
- Activity (Danio rerio): Non-Toxic

- Activity [1]: 60.9%
SMILES: COC(=O)c1cccc(-c2cnc3[nH]cc(-c4ccccc4OC)c3c2)c1

- Activity [1]: 28.5%
SMILES: COC(=O)c1cccc(-c2cnc3[nH]cc(-c4cccc([N+](=O)[O-])c4)c3c2)c1

- Activity [1]: 61%
SMILES: COC(=O)c1cccc(-c2cnc3[nH]cc(-c4ccccc4C)c3c2)c1

- Activity [11]: 72.8%
SMILES: O=C(O)c1cccc(-c2cnc3[nH]ccc3c2)c1

- Activity [1]: 7.31%
- IC50 [2]: 123 nM
- Activity [3]: 23.5%
- Activity [4]: > 100%
- Activity [5]: 97.2%
- Activity [6]: 78.7%
- Activity [7]: 82.9%
- solubility [8]: 2.5 µM (≈ 0.821 µg/mL)
- solubility [9]: 4.4 µM (≈ 1.44 µg/mL)
- remaining at 48 h [10]: 86%
SMILES: COC(=O)c1cccc(-c2cnc3[nH]cc(-c4ccccc4)c3c2)c1

- Activity [1]: 41.1%
SMILES: COc1cccc(-c2c[nH]c3ncc(-c4cccc(C#N)c4)cc23)c1

- Activity [1]: 5.89%
- IC50 [2]: 62.5 nM
- Activity [3]: 22.3%
- Activity [4]: 73.8%
- Activity [5]: 61.3%
- Activity [6]: 23.3%
- Activity [7]: 76.2%
- solubility [8]: 4.6 µM (≈ 1.52 µg/mL)
- solubility [9]: 28.6 µM (≈ 9.45 µg/mL)
- remaining at 48 h [10]: 72%
- Papp A→B at 1 µM [12]: 0.37 ×10⁻⁶ cm/s
- recovery at 1 µM [13]: 1.5%
- Papp B→A at 1 µM [14]: 0.21 ×10⁻⁶ cm/s
- recovery at 1 µM [15]: 41.1%
SMILES: COC(=O)c1cccc(-c2cnc3[nH]cc(-c4cncnc4)c3c2)c1

- Activity [1]: 29.3%
SMILES: c1ccc(-c2cnc3[nH]cc(-c4ccccc4)c3c2)cc1

- Activity [11]: 67.2%
SMILES: CNC(=O)c1cccc(-c2cnc3[nH]ccc3c2)c1
